Assay results as given in US8003649B2 (AstraZeneca AB, priority 2007, dated 2011).

Molecular target: T1, Androgen Receptor (AR) (Homo sapiens, UniProt P10275, T878A)
T1 construct: cell based immuno-fluorescence assay using the LNCaP prostate epithelial cell line; endogenous in cells; host or cells: LNCaP clone FGC (ATCC CRL-1740)
T1 sequence (P10275 1-920 T878A): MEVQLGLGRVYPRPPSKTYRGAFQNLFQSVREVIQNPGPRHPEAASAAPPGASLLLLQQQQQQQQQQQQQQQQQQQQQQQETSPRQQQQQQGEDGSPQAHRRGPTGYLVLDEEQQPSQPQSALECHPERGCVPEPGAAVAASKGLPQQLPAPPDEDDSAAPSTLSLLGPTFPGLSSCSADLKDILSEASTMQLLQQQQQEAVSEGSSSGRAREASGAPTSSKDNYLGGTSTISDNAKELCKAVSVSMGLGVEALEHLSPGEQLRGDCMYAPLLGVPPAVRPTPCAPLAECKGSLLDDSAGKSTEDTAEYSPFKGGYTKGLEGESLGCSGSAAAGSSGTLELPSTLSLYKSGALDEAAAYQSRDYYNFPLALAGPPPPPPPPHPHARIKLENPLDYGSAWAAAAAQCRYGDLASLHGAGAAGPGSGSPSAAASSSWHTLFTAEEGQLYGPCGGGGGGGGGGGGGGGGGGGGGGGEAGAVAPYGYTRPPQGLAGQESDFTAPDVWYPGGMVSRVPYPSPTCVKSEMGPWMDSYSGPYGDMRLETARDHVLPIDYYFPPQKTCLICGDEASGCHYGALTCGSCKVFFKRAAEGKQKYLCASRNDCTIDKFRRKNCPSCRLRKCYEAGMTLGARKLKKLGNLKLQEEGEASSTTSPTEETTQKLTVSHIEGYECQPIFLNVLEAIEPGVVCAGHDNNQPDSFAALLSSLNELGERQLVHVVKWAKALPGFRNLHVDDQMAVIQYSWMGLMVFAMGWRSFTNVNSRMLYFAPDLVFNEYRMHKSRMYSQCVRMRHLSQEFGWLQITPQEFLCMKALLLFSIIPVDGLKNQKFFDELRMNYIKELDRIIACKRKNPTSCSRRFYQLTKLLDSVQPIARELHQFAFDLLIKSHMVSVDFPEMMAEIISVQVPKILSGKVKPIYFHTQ
Assay: LNCaP Androgen Receptor Down-regulation Cell Assay (immunofluorescence end point)
Type: cell-based
Settings: LNCaP prostate carcinoma cells, compound incubation 20-22 hours, 50% reduction of the AR signal; read-out: Androgen Receptor Down-regulation Assay (a) IC50/μM
Summary of the method: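 AR loss reported as IC50 from curve fits of fluorescence dose-response data, with AR immunostained and read by laser-scanning cytometry. Compound exposure was 20-22 h at 37° C in LNCaP cells grown in 5% charcoal-stripped FBS and plated overnight beforehand.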

| SMILES | DC50 |
| --- | --- |
| Fc1ccc(CN2[C@@H]3CC[C@H]2CN(c2ccc4nnc(C(F)(F)F)n4n2)C3)cc1 [Example 839] | 1.1 µM |
| N#Cc1cccc(CN2[C@@H]3CC[C@H]2CN(c2ccc4nnc(C(F)(F)F)n4n2)C3)c1 [Example 840] | 2.6 µM |
| N#Cc1ccc(CN2[C@@H]3CC[C@H]2CN(c2ccc4nnc(C(F)(F)F)n4n2)C3)cc1 [Example 841] | 2.9 µM |
| Fc1cccc(CN2CCN(c3ccc4nnc(C(F)(F)F)n4n3)CC(F)(F)C2)c1 [Example 842] | 1.1 µM |
| N#Cc1cnn(CCOc2ccc(N3CCN(c4ccc5nnc(C(F)(F)F)n5n4)CC3)cc2)c1 [Example 848, 1-[2-[4-[4-[3-(trifluoromethyl)[1,2,4]triazolo[4,3-b]pyridazin-6-yl]piperazin-1-yl]phenoxy]ethyl]-1H-pyrazole-4-carbonitrile] | 3.5 µM |
| COCCN(C)C(=O)COc1ccc(C2CCN(c3ccc4nnc(C(F)(F)F)n4n3)CC2)cc1 [Example 851, N-(2-methoxyethyl)-N-methyl-2-[4-[1-[3-(trifluoromethyl)[1,2,4]triazolo[4,3-b]pyridazin-6-yl]piperidin-4-yl]phenoxy]acetamide] | 0.92 µM |
| CS(=O)(=O)N1CCN(CCCOc2ccc(C3CCN(c4ccc5nnc(C(F)(F)F)n5n4)CC3)cc2)CC1 [Example 855, 6-[4-[4-[3-[4-(methylsulfonyl)piperazin-1-yl]propoxy]phenyl]piperidin-1-yl]-3-(trifluoromethyl)[1,2,4]triazolo[4,3-b]pyridazine] | 0.44 µM |
| Cn1nccc1CCOc1ccc(C2(O)CCN(c3ccc4nnc(C(F)(F)F)n4n3)CC2)cc1 [Example 860, 4-[4-[2-(1-methyl-1H-pyrazol-5-yl)ethoxy]phenyl]-1-[3-(trifluoromethyl)[1,2,4]triazolo[4,3-b]pyridazin-6-yl]piperidin-4-ol] | 0.8 µM |

Results, then the molecule that gave them:

| DC50 | SMILES |
| --- | --- |
| 2.5 µM | FC(F)(F)Cc1nnc2ccc(N3CCN(C(c4ccccc4)c4ccccc4)CC3)nn12 [Example 4, 6-(4-benzhydrylpiperazin-1-yl)-3-(2,2,2-trifluoroethyl)-[1,2,4]triazolo[4,3-b]pyridazine] |
| 0.93 µM | CS(=O)(=O)c1ccc(CN2CCCN(c3ccc4nnc(C(F)(F)F)n4n3)CC2)cc1 [Example 166, 6-[4-[(4-methylsulfonylphenyl)methyl]-1,4-diazepan-1-yl]-3-(trifluoromethyl)-[1,2,4]triazolo[4,3-b]pyridazine] |
| 0.94 µM | FC(F)(F)c1ccccc1CN1CCCN(c2ccc3nnc(C(F)(F)F)n3n2)CC1 [Example 174, 3-(trifluoromethyl)-6-[4-[[2-(trifluoromethyl)phenyl]methyl]-1,4-diazepan-1-yl]-[1,2,4]triazolo[4,3-b]pyridazine] |
| 0.93 µM | N#Cc1ccc(CN2CCN(c3ccc4nnc(C(F)(F)F)n4n3)CC(F)(F)C2)cc1 [Example 843] |
| 0.78 µM | N#Cc1cccc(CN2CCN(c3ccc4nnc(C(F)(F)F)n4n3)CC(F)(F)C2)c1 [Example 844] |
| 0.9 µM | FC(F)(F)c1nnc2ccc(N3CCN(c4ccc(OCCn5ccnc5)cc4)CC3)nn12 [Example 845, 6-[4-[4-[2-(1H-imidazol-1-yl)ethoxy]phenyl]piperazin-1-yl]-3-(trifluoromethyl)[1,2,4]triazolo[4,3-b]pyridazine] |
| 0.27 µM | FC(F)(F)c1nnc2ccc(N3CCC(c4ccc(OCCn5ccnc5)cc4)CC3)nn12 [Example 846, 6-[4-[4-[2-(1H-imidazol-1-yl)ethoxy]phenyl]piperidin-1-yl]-3-(trifluoromethyl)[1,2,4]triazolo[4,3-b]pyridazine] |
| 0.68 µM | FC(F)(F)c1nnc2ccc(N3CCC(c4ccc(OCCn5cccn5)cc4)CC3)nn12 [Example 849, 6-[4-[4-[2-(1H-pyrazol-1-yl)ethoxy]phenyl]piperidin-1-yl]-3-(trifluoromethyl)[1,2,4]triazolo[4,3-b]pyridazine] |
| 0.56 µM | N#Cc1cnn(CCOc2ccc(C3CCN(c4ccc5nnc(C(F)(F)F)n5n4)CC3)cc2)c1 [Example 850] |
| 0.29 µM | CC(=O)N1CCN(CCOc2ccc(C3CCN(c4ccc5nnc(C(F)(F)F)n5n4)CC3)cc2)CC1 [Example 852, 6-[4-[4-[2-(4-acetylpiperazin-1-yl)ethoxy]phenyl]piperidin-1-yl]-3-(trifluoromethyl)[1,2,4]triazolo[4,3-b]pyridazine] |
| 2.2 µM | Cn1nccc1CCOc1ccc(N2CCN(c3ccc4nnc(C(F)F)n4n3)CC2)cc1 [Example 856, 3-(difluoromethyl)-6-[4-[4-[2-(1-methyl-1H-pyrazol-5-yl]ethoxy]phenyl]piperazin-1-yl)[1,2,4]triazolo[4,3-b]pyridazine] |
| > 33 µM | N#Cc1ccc(S(=O)(=O)N2CCN(c3ccc4nnc(C(F)(F)F)n4n3)CC2)cc1 [Example 857, 4-[4-[3-(trifluoromethyl)-[1,2,4]triazolo[3,4-f]pyridazin-6-yl]piperazin-1-yl]sulfonylbenzonitrile] |
| > 33 µM | C[C@H](c1ccc(C#N)cc1)N1CCN(c2ccc3nnc(C(F)F)n3n2)CC1 [Example 858, 4-[(1R)-1-[4-[3-(difluoromethyl)-[1,2,4]triazolo[3,4-f]pyridazin-6-yl]piperazin-1-yl]ethyl]benzonitrile] |
| > 33 µM | CS(=O)(=O)c1cc(F)cc(CN2CCN(c3ccc4nnc(C(F)F)n4n3)CC2)c1 [Example 859, 3-(difluoromethyl)-6-[4-[3-fluoro-5-(methylsulfonyl)benzyl]piperazin-1-yl][1,2,4]triazolo[4,3-b]pyridazine] |

Molecular target: T2, isolated rat AR-LBD (Rattus norvegicus, UniProt P15207)
T2 construct: purchased Invitrogen PV4293
T2 sequence (P15207 651-882 limits assumed): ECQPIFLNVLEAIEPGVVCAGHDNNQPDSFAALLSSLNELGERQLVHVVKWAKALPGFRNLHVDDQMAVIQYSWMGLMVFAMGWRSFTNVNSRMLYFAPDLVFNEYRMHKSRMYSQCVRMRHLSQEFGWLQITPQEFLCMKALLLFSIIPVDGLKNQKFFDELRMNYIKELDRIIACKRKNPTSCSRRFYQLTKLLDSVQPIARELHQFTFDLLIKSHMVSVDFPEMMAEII
Assay: Androgen Receptor Ligand Binding Domain competitive binding assay, Fluorescence Polarisation (PolarScreen)
Settings: 50% reduction in tracer compound binding to AR-LBD; read-out: Androgen Receptor FP Ligand-Binding Assay IC50/μM
Method: b) Androgen Receptor—Ligand Binding Domain Competitive Binding Assay
The ability of compounds to bind to isolated Androgen Receptor Ligand binding domain (AR-LBD) was assessed in competition assays using either a Fluorescence Polarisation (FP) or a LanthaScreen™ Time-Resolved Fluorescence Resonance Energy Transfer (TR-FRET) detection end-point.
For the FP test, an assay test kit was purchased from Invitrogen and used to measure compound binding to the isolated rat AR-LBD which shares 100% sequence identity to the human AR-LBD. The Invitrogen PolarScreen™ Androgen Receptor Competitor Assay Red (Product Code No. PV4293), is a fluorescence polarisation (FP)-based competition assay which measures if test compound can displace a fluorescently-labelled tracer compound. If the test compound binds to the AR-LBD it will prevent the formation of the receptor/tracer complex, which will result in a low polarisation value. […] The assay was performed as essentially described in the Invitrogen method with the exception that the final assay volume was 12 μl and this required an appropriate low volume black 384 well microtitre plate. Compounds were dosed directly from a compound source microplate containing serially diluted compound (4 wells containing 10 mM, […], 1 μM and 10 nM final compound respectively) to an assay microplate using the Labcyte Echo 550. The Echo 550 is a liquid handler that uses acoustic technology to perform direct microplate-to-microplate transfers of DMSO compound solutions and the system can be programmed to transfer multiple small nL volumes of compound from the different source plate wells to give the desired serial dilution of compound in the assay which is then back-filled to normalise the DMSO concentration across the dilution range. FP dose response data obtained with each compound was exported into a suitable software package (such as Origin) to perform curve fitting analysis. Competitive AR binding was expressed as an IC50 value. This was determined by calculation of the concentration of compound that was required to give a 50% reduction in tracer compound binding to AR-LBD.

| SMILES | IC50 |
| --- | --- |
| FC(F)(F)c1nnc2ccc(N3CC4CC3CN4Cc3ccccc3)nn12 (stereo not drawn) [Example 41, 6-(5-benzyl-2,5-diazabicyclo[2.2.1]heptan-2-yl)-3-(trifluoromethyl)-[1,2,4]triazolo[4,3-b]pyridazine] | 19.6 µM |
| Cc1ccccc1CN1CCCN(c2ccc3nnc(C(F)(F)F)n3n2)CC1 [Example 183, 6-[4-[(2-methylphenyl)methyl]-1,4-diazepan-1-yl]-3-(trifluoromethyl)-[1,2,4]triazolo[4,3-b]pyridazine] | 14.4 µM |

Further lines, results first:

| IC50 | SMILES |
| --- | --- |
| 20.2 µM | FC(F)(F)Cc1nnc2ccc(N3CCN(C(c4ccccc4)c4ccccc4)CC3)nn12 [Example 4, 6-(4-benzhydrylpiperazin-1-yl)-3-(2,2,2-trifluoroethyl)-[1,2,4]triazolo[4,3-b]pyridazine] |
| 6.09 µM | CS(=O)(=O)c1ccc(CN2CCCN(c3ccc4nnc(C(F)(F)F)n4n3)CC2)cc1 [Example 166, 6-[4-[(4-methylsulfonylphenyl)methyl]-1,4-diazepan-1-yl]-3-(trifluoromethyl)-[1,2,4]triazolo[4,3-b]pyridazine] |
| 16.3 µM | FC(F)(F)c1ccccc1CN1CCCN(c2ccc3nnc(C(F)(F)F)n3n2)CC1 [Example 174, 3-(trifluoromethyl)-6-[4-[[2-(trifluoromethyl)phenyl]methyl]-1,4-diazepan-1-yl]-[1,2,4]triazolo[4,3-b]pyridazine] |
